The nature of data set [1]: Human hepatic intrinsic clearance (CLint) from human hepatocyte incubations. It is filed as in vitro ADME. Conditions: cryopreserved human hepatocytes in suspension, 1×10^6 cells/ml, 1 μM compound, no HSA, pH 7.4. The text has this: Measurement of Human Hepatic Intrinsic Clearance (CLint)
For the majority of drugs, a large component of their plasma clearance is contributed by hepatic metabolism. Intrinsic clearance (CLint) is a measure of the potential of a compound to undergo metabolism and can be related to hepatic clearance in vivo from a consideration of plasma protein binding and liver blood flow. Therefore, CLint may be used as a key parameter in predicting the half-life of a compound in humans. […]
An aliquot of cell suspension (0.2 mL) was diluted with 0.2 ml protein-free suspension buffer. […] The cells were then counted (central square only) using an inverted microscope, viable cells being able to exclude the dye and non-viable cells being stained. The percentage of viable cells in the preparation was calculated thus:
The concentration of viable cells was calculated: Viable cells ml^−1=Viable cell count×10^4×3×50 […]
At appropriate time points (e.g. 5, 15, 30, 45, 60, 75, 90 and 120 min), aliquots (40 μl) were taken out of the incubation mix and added to 3 volumes of methanol to terminate the reactions and denature the hepatocytes. […] The supernatants were transferred to micro titre plates and analysed by HPLC-MSMS using the following method as a suitable starting point: […]

Data set [2] in a line: Distribution coefficient at pH 7.4 (Log D7.4), 1-octanol/phosphate buffer. The format is physicochemical. Conditions: 1-octanol / 0.02 M phosphate buffer pH 7.4. On the procedure: Measurement of Distribution Coefficient at pH 7.4 (Log D7.4)
Compounds of interest (1 mg) were dispensed into individual 1-mL polypropylene vials, held within a 96-well plate along with 1-octanol (700 μL), and presaturated with 0.02 M phosphate buffer (pH 7.4). The plate was then shaken overnight followed by centrifugation (800 g for 15 min) to sediment any undissolved solids. Up to 24 mixtures of 10 compounds (or less) were then prepared by pooling the 1-octanol solutions (100 μL) into a plate of 12-mL glass sample tubes. […] The pooling of compounds was performed robotically and controlled using automatically generated bespoke work lists. If a mixture contained less than 10 compounds, then 1-octanol (presaturated with 0.02 M phosphate buffer [pH 7.4]) was added to make up the total volume of the 1-octanol phase to 1 mL. 1-Octanol-saturated phosphate buffer (0.02 M, pH 7.4, 2 mL) was then added to each mixture before shaking (450 rpm for 30 min) and centrifugation (800 g for 15 min). The final 1-octanol and aqueous phases of each partition mixture were then robotically separated. […] Log D7.4 was calculated from the ratio of one of the 1-octanol relative concentrations to the interpolated aqueous relative concentration after correcting for the extent of dilution of both the 1-octanol and aqueous solutions.

Structures are written as SMILES.

One may read the hepatocyte CLint as the capacity of the preparation to metabolise the compound, expressed as a volume cleared per time. The term logD denotes the decadic logarithm of the distribution of all forms, ionised or not, between an organic phase and buffer at a given pH. High values mean a more lipophilic compound, low ones a more hydrophilic compound. Consider `CC1CN(S(=O)(=O)Nc2cc(O[C@H](C)[C@@H](O)CO)nc(SCc3ccc(F)cc3)n2)C1` [Example 1, N-(6-((2R,3S)-3,4-Dihydroxybutan-2-yloxy)-2-(4-fluorobenzylthio)pyrimidin-4-yl)-3-methylazetidine-1-sulfonamide], for which the hepatocyte CLint at 1 μM in data set [1] amounted to 2.9 µL/min/1e6 cells. The logD in data set [2] was found to be 1.9.

These data come from patent US9975881B2, “Compound” (ASTRAZENECA AB, priority 2011, dated 2018).
